Earlier results on 1 compound are cited in patent US20210115268A1, “FUNCTIONALIZED QUATERNARY AMMONIUM HALIDES AND USE THEREOF” (Agency for Science, Technology and Research, priority 2015, published 2021).

The conditions of the data set: glass, cotton, polyester fibers or polyurethane foams treated with the silane; after repeated washings.

With `CCCCCCCCCCCCCCCCCC[N+](C)(C)CCC[Si](OC)(OC)OC.[Cl-]` [DC 5700, (MeO)3Si(CH2)3N^+Me2C18H37Cl], the “algicidal and bactericidal properties, leaching” value is “showed algicidal and bactericidal properties that are maintained after repeated washings and no apparent leaching was observed”.
